Results: patent US20240109881A1, “Heteroaryl Compounds as Ligand Directed Degraders of IRAK4” (Bristol-Myers Squibb Company, priority 2022, published 2024)

Columns and labels:
IRAK4 [1] = target: T1, IRAK4 (Homo sapiens, UniProt Q9NWZ3); assay: LVL THP1 HTRF (THP1 Homogeneous Time Resolved Fluorescence); type: cell-based; details: THP1 cells, 18 h incubation with compound; for DC50: read-out: LVL THP1 HTRF EC50
T1 construct: endogenous in cells; host or cells: THP-1 cells
T1 sequence (Q9NWZ3 1-460): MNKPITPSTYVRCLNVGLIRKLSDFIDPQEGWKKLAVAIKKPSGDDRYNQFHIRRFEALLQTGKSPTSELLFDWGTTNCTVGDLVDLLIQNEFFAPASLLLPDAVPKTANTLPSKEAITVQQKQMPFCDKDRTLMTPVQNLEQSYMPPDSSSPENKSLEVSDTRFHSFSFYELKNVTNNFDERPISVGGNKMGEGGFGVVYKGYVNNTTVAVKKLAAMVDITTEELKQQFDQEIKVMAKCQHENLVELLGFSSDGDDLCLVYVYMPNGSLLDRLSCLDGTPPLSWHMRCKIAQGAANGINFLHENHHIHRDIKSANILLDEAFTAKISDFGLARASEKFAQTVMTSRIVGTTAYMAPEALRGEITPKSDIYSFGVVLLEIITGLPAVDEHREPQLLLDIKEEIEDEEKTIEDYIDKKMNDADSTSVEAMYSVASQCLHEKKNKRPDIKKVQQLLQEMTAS
Method in brief: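 IRAK4 HTRF read-out (665/615 nm ratio, anti-IRAK4 d2 acceptor and K donor, 18 h dark incubation at room temperature) on lysates of THP-1 cells. Cells were treated 18 h at 37° C. with 20 nL compound in DMSO, in colorless RPMI with 10% FBS, with a duplicate CTG plate.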

IRAK4 [2] = target: T1, IRAK4; assay: ALE THP1 HTRF (Advanced Lipoxidation End Product THP1 Homogeneous Time Resolved Fluorescence); type: cell-based; details: THP1 cells
Method in brief: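 HTRF read-out of IRAK4 protein: anti-IRAK4 d2 and cryptate antibody pair added to BCA-normalized lysates, overnight dark room-temperature incubation. Lysis ran 45 min with shaking at room temperature; buffer, cryptate-only and negative controls included.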

C[C@H](C#N)Nc1cc(-n2ccc3cnc(N)nc32)ncc1C(=O)N[C@H]1CC[C@H](CCN2CCN(c3ccc(C4CCC(=O)NC4=O)cc3)CC2)CC1 (stereo partly shown) [P-163]
LVL THP1 HTRF YMIN (IRAK4 [1]): <0.5% | DC50 (IRAK4 [1]): 0.026 µM | ALE THP1 HTRF YMIN (IRAK4 [2]): 8.4% | EC50 (IRAK4 [2]): 0.012 µM

C[C@H](C#N)Nc1cc(-n2ncc3cc(C#N)cnc32)ncc1C(=O)N[C@H]1CC[C@H](CCN2CC3CCC(C2)N3c2ccc(C3CCC(=O)NC3=O)cc2)CC1 (stereo partly shown) [P-164]
LVL THP1 HTRF YMIN (IRAK4 [1]): 16.8% | DC50 (IRAK4 [1]): > 5 µM | ALE THP1 HTRF YMIN (IRAK4 [2]): 64.0% | EC50 (IRAK4 [2]): 0.136 µM

C[C@H](C#N)Nc1cc(-n2ncc3cc(C#N)c(N)nc32)ncc1C(=O)N[C@H]1CC[C@H](CCN2CCN(c3ccc(C4CCC(=O)NC4=O)cc3F)[C@H](C)C2)CC1 (stereo partly shown) [P-165]
LVL THP1 HTRF YMIN (IRAK4 [1]): <0.5% | DC50 (IRAK4 [1]): 0.006 µM | ALE THP1 HTRF YMIN (IRAK4 [2]): 5.4% | EC50 (IRAK4 [2]): 0.002 µM

C[C@H](C#N)Nc1cc(-n2ncc3cc(C#N)c(N)nc32)ncc1C(=O)N[C@H]1CC[C@H](CCN2CCN(c3ccc(C4CCC(=O)NC4=O)cn3)[C@H](C)C2)CC1 (stereo partly shown) [P-166]
LVL THP1 HTRF YMIN (IRAK4 [1]): <0.5% | DC50 (IRAK4 [1]): 0.021 µM | ALE THP1 HTRF YMIN (IRAK4 [2]): 8.1% | EC50 (IRAK4 [2]): 0.008 µM

COc1cc(C2CCC(=O)NC2=O)ccc1N1CCN(CC[C@H]2CC[C@H](NC(=O)c3cnc(-n4ncc5cc(C#N)c(N)nc54)cc3N[C@H](C)C#N)CC2)C[C@H]1C (stereo partly shown) [P-167]
LVL THP1 HTRF YMIN (IRAK4 [1]): <0.5% | DC50 (IRAK4 [1]): 0.005 µM | ALE THP1 HTRF YMIN (IRAK4 [2]): 5.9% | EC50 (IRAK4 [2]): 0.002 µM

C[C@H](C#N)Nc1cc(-n2ncc3cc(C#N)c(N)nc32)ncc1C(=O)N[C@H]1CC[C@H](CCN2CCN(c3ccc(C4CCC(=O)NC4=O)cc3Cl)[C@H](C)C2)CC1 (stereo partly shown) [P-168]
LVL THP1 HTRF YMIN (IRAK4 [1]): <0.5% | DC50 (IRAK4 [1]): 0.003 µM | ALE THP1 HTRF YMIN (IRAK4 [2]): 5.5% | EC50 (IRAK4 [2]): 0.006 µM

CS(=O)(=O)N1CCC(Nc2cc(-n3ncc4cc(C#N)cnc43)ncc2-n2cc([C@H]3CC[C@H](CCN4CCN(c5ccc(C6CCC(=O)NC6=O)cc5)CC4)CC3)nn2)CC1 (stereo partly shown) [P-174]
LVL THP1 HTRF YMIN (IRAK4 [1]): 2.7% | DC50 (IRAK4 [1]): 0.014 µM | ALE THP1 HTRF YMIN (IRAK4 [2]): 31.2% | EC50 (IRAK4 [2]): 0.201 µM

C[C@H](C#N)Nc1cc(-n2ncc3cc(C#N)c(N)nc32)ncc1C(=O)N[C@H]1CC[C@H](CCN2CCN(c3ccc(C4CCC(=O)NC4=O)cc3)C(=O)C2)CC1 (stereo partly shown) [P-177]
LVL THP1 HTRF YMIN (IRAK4 [1]): 6.4% | DC50 (IRAK4 [1]): 0.032 µM | ALE THP1 HTRF YMIN (IRAK4 [2]): 6.7% | EC50 (IRAK4 [2]): 0.004 µM

C[C@H](C#N)Nc1cc(-n2ncc3cc(C#N)c(N)nc32)ncc1C(=O)N[C@H]1CC[C@H](CCN2CCN(c3ccc(C4CCC(=O)NC4=O)cc3)[C@@H](C)C2)CC1 (stereo partly shown) [P-178]
LVL THP1 HTRF YMIN (IRAK4 [1]): 0.8% | DC50 (IRAK4 [1]): 0.001 µM | ALE THP1 HTRF YMIN (IRAK4 [2]): 7.5% | EC50 (IRAK4 [2]): 0.012 µM

C[C@H](C#N)Nc1cc(-n2ncc3cc(C#N)cnc32)ncc1C(=O)N[C@H]1CC[C@H](CCN2C[C@H]3C[C@@H](C2)N3c2ccc(C3CCC(=O)NC3=O)cc2)CC1 (stereo partly shown) [P-180]
LVL THP1 HTRF YMIN (IRAK4 [1]): 18.9% | DC50 (IRAK4 [1]): 0.702 µM | ALE THP1 HTRF YMIN (IRAK4 [2]): 7.5% | EC50 (IRAK4 [2]): 0.006 µM

C[C@H](C#N)Nc1cc(-n2ncc3cc(C#N)c(N)nc32)ncc1C(=O)N[C@H]1CC[C@H](CCN2CCN(c3ccc(C4CCC(=O)NC4=O)cc3)C(C(F)(F)F)C2)CC1 (stereo partly shown) [P-181]
LVL THP1 HTRF YMIN (IRAK4 [1]): 18.3% | DC50 (IRAK4 [1]): 0.112 µM | ALE THP1 HTRF YMIN (IRAK4 [2]): 27.7% | EC50 (IRAK4 [2]): 0.168 µM

C[C@H](C#N)Nc1cc(-n2ncc3cc(C#N)cnc32)ncc1C(=O)N[C@H]1CC[C@H](CCN2CCN(c3ccc(C4CCC(=O)NC4=O)cc3)C3(CCC3)C2)CC1 (stereo partly shown) [P-182]
LVL THP1 HTRF YMIN (IRAK4 [1]): 6.3% | DC50 (IRAK4 [1]): 0.415 µM | ALE THP1 HTRF YMIN (IRAK4 [2]): 9.4% | EC50 (IRAK4 [2]): 0.005 µM

C[C@H](C#N)Nc1cc(-n2ncc3cc(C#N)cnc32)ncc1C(=O)N[C@H]1CC[C@H](CCN2[C@@H]3C[C@H]2CN(c2ccc(C4CCC(=O)NC4=O)cc2)C3)CC1 (stereo partly shown) [P-183]
LVL THP1 HTRF YMIN (IRAK4 [1]): <0.5% | DC50 (IRAK4 [1]): 0.012 µM | ALE THP1 HTRF YMIN (IRAK4 [2]): 27.9% | EC50 (IRAK4 [2]): 0.063 µM
